Some test systems named below: 786-0; ACHN; CCRF-CEM; HL-60; HT-29; Hs-578T; K562; MDA-MB-435; NCI-H226; NCI-H460; NCI-H522; SF-268; SK-MEL-28; SK-OV-3; SN12C; SNB-75; SR; T47D; TK-10; SK-MEL-2.
What all share (assay): NCI-60 cell line screen, 48 h

The text below walks through data of ChEMBL document CHEMBL1201862, “PubChem BioAssay data set” (2004).

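Five compound concentrations were applied to cells in 96-well plates for 48 hours; endpoints were derived by simple linear interpolation of the resulting dose-response curve. GI50 marks 50% less growth.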 Active and inactive are the calls of the source. Rule as the data show it: active = GI50 up to about 1.1 µM and inactive = higher.

For `N[C@H](Cc1ccc2oc3cc(=O)c4ccccc4c-3nc2c1)C(=O)O`, the GI50 in the test on 786-0 was 89.9 µM (inactive); in the test with ACHN, > 100 µM (inactive); in the test with CCRF-CEM it was 20.9 µM (inactive); in the test on HL-60 it was 27.7 µM (inactive); in the test on HT-29, 29.2 µM (inactive); in the test on Hs-578T it was 39.6 µM (inactive). Also, the GI50 in the test on K562 was 26.2 µM (inactive); in the test on MDA-MB-435 it was 15.5 µM (inactive); with NCI-H226, 40.8 µM (inactive); in the test with NCI-H460, 25.9 µM (inactive); in the test with NCI-H522, 44.7 µM (inactive); with SF-268 it was 79.6 µM (inactive). For the same molecule, the GI50 is > 100 µM (inactive) with SK-MEL-28; > 100 µM (inactive) in the test on SK-OV-3; 42.5 µM (inactive) with SN12C; 67 µM (inactive) with SNB-75; 17.9 µM (inactive) with SR; > 100 µM (inactive) in the test with T47D. Besides, in the test on TK-10, the GI50 was 97.5 µM (inactive).

For `Nc1ccc2c(c1)C(=O)c1ccccc1-2`, the GI50 is > 100 µM (inactive) in the test with 786-0; 72.9 µM (inactive) with ACHN; 71.6 µM (inactive) in the test on CCRF-CEM; 30.2 µM (inactive) in the test with HL-60; > 100 µM (inactive) in the test on HT-29; > 100 µM (inactive) with Hs-578T. For the same molecule, the GI50 is 51.6 µM (inactive) in the test on K562; > 100 µM (inactive) in the test with MDA-MB-435; > 100 µM (inactive) with NCI-H226; > 100 µM (inactive) in the test on NCI-H460; > 100 µM (inactive) in the test with NCI-H522; > 100 µM (inactive) in the test on SF-268. For the same molecule, the GI50 with SK-MEL-28 is > 100 µM (inactive); in the test with SK-MEL-2, > 100 µM (inactive); with SN12C, > 100 µM (inactive); in the test with SNB-75, > 100 µM (inactive); in the test on SR, 23.6 µM (inactive); with T47D, 61.8 µM (inactive). In addition, the GI50 in the test on TK-10 was > 100 µM (inactive).

Consider `O=C1c2ccccc2CN1c1ccc(O)cc1`, for which the GI50 in the test with 786-0, in the test with ACHN, with CCRF-CEM, with HL-60, with HT-29 and in the test with Hs-578T was > 100 µM (inactive) each time. For the same molecule, the GI50 with K562, in the test with MDA-MB-435, with NCI-H226, in the test on NCI-H460, in the test on NCI-H522 and in the test on SF-268 was > 100 µM (inactive) in each case. In addition, the GI50 with SK-MEL-28, in the test on SK-MEL-2, in the test with SK-OV-3, in the test on SN12C, in the test on SR and with T47D was > 100 µM (inactive) each time. In the test with TK-10, the GI50 is > 100 µM (inactive).

As for `Cc1ccc(SCC(OCn2cnc3c(Cl)nc(N)nc32)[C@H](C)F)cc1` (some centres undefined), the GI50 in the test with 786-0 was 85.1 µM (inactive); with ACHN, 37.5 µM (inactive); with CCRF-CEM it was 39.1 µM (inactive); in the test with HL-60 it was 28.3 µM (inactive); in the test on HT-29, 82.2 µM (inactive); with Hs-578T it was > 100 µM (inactive). Further, the GI50 with MDA-MB-435 was > 100 µM (inactive); in the test on NCI-H226 it was > 100 µM (inactive); in the test with NCI-H460, 78.2 µM (inactive); with NCI-H522, 13.8 µM (inactive); in the test with SF-268, > 100 µM (inactive); in the test with SK-MEL-28 it was > 100 µM (inactive). The GI50 in the test on SK-MEL-2 was > 100 µM (inactive); in the test with SK-OV-3, > 100 µM (inactive); in the test on SN12C it was 43.7 µM (inactive); in the test with SNB-75 it was > 100 µM (inactive); with SR, 28.2 µM (inactive); in the test with T47D it was 71.1 µM (inactive). The GI50 in the test with TK-10 was > 100 µM (inactive).

In the case of `Cn1nc(S(N)(=O)=O)s/c1=N/C(N)=S`, the GI50 in the test with 786-0, in the test with ACHN, with CCRF-CEM, in the test with HL-60, in the test with HT-29 and in the test on Hs-578T was > 100 µM (inactive) throughout. Further, the GI50 in the test on K562, with MDA-MB-435, in the test with NCI-H226, with NCI-H460, with NCI-H522 and with SF-268 was > 100 µM (inactive) throughout. Further, the GI50 with SK-MEL-28, in the test with SK-MEL-2, in the test on SK-OV-3, in the test on SN12C, in the test with SR and in the test with T47D was > 100 µM (inactive) throughout. For the same molecule, the GI50 in the test with TK-10 is > 100 µM (inactive).

`O=P(OCc1ccccc1)(OCc1ccccc1)C(O)/C=C/c1ccccc1` (centres undefined): the GI50 is 17.7 µM (inactive) in the test on 786-0; 29.1 µM (inactive) with ACHN; 19.8 µM (inactive) in the test with HL-60; 21.3 µM (inactive) with HT-29; 17 µM (inactive) with Hs-578T; 34.2 µM (inactive) with K562. Besides, the GI50 with MDA-MB-435 was 17.3 µM (inactive); in the test with NCI-H226, 34.8 µM (inactive); in the test with NCI-H522 it was 23.8 µM (inactive); in the test on SF-268, 16.9 µM (inactive); with SK-MEL-28, 37.9 µM (inactive); with SK-MEL-2, 20.7 µM (inactive). The GI50 with SK-OV-3 was 45.1 µM (inactive); in the test with SN12C, 19.8 µM (inactive); in the test on SR it was 19.9 µM (inactive); in the test with T47D, 33.7 µM (inactive).

As to `O=[N+]([O-])/C(Cl)=C(\Sc1ccccc1)C(Cl)=C(Cl)Cl`, the GI50 with 786-0 was 0.308 µM (active); in the test with ACHN, 1.66 µM (inactive); in the test with CCRF-CEM it was 0.296 µM (active); with HL-60, 0.273 µM (active); in the test with HT-29 it was 0.355 µM (active); in the test on Hs-578T, 0.562 µM (active). Besides, the GI50 is 0.294 µM (active) in the test with K562; 0.22 µM (active) in the test with MDA-MB-435; 2.23 µM (inactive) in the test on NCI-H226; 1.54 µM (inactive) in the test on NCI-H460; 0.26 µM (active) with NCI-H522; 1.4 µM (inactive) with SF-268. The GI50 in the test with SK-MEL-28 was 1.41 µM (inactive); with SK-MEL-2 it was 1.77 µM (inactive); with SK-OV-3, 4.21 µM (inactive); with SN12C it was 0.373 µM (active); with SR, 0.292 µM (active); in the test with T47D it was 1.28 µM (inactive). In addition, the GI50 with TK-10 is 1.8 µM (inactive).

Regarding `COc1ccc(SCc2cc(OCc3ccccc3)c(OCc3ccccc3)c(OCc3ccccc3)c2)cc1`, the GI50 in the test with 786-0 is 1.55 µM (inactive); in the test on ACHN, 1.73 µM (inactive); in the test on CCRF-CEM, 1.72 µM (inactive); with HL-60, 1.87 µM (inactive); in the test on HT-29, 1.52 µM (inactive); with Hs-578T it was 2.12 µM (inactive). Also, the GI50 is 1.21 µM (inactive) with K562; 1.76 µM (inactive) in the test on MDA-MB-435; 1.9 µM (inactive) with NCI-H226; 2.38 µM (inactive) in the test on NCI-H460; 1.83 µM (inactive) with NCI-H522; 1.77 µM (inactive) in the test on SF-268. For the same molecule, the GI50 in the test on SK-MEL-28 is 2.07 µM (inactive); in the test with SK-OV-3, 1.77 µM (inactive); in the test with SN12C, 1.79 µM (inactive); in the test on SNB-75, 1.58 µM (inactive); with SR, 0.493 µM (active); with T47D it was 2.69 µM (inactive). Besides, in the test on TK-10, the GI50 was 1.89 µM (inactive).
